Values of other authors as cited in article PMC8843100, “Development of newly synthesised quinazolinone-based CDK2 inhibitors with potent efficacy against melanoma” (Journal of Enzyme Inhibition and Medicinal Chemistry, 2022).

System: cyclin-dependent kinase2
Design: method as in PMID 11354366
Details: CDK2; cited from earlier work

CC(C)(C)Nc1nc(C(F)(F)F)nc2ccc(-c3cccc(N)c3)cc12 [DIN-234325]
IC50: 600 ± 100 nM
